Reference: patent US20030022821A1, “Bioactive peptides” (priority 1998, published 2003)
Where two headings read alike, the source gives them in different places. Square brackets hold non-standard residues; d marks the D form. Ends that are not written are not given here. Peptide text beside a SMILES is read from it.

Columns and labels:
[1] = test system: human promyelotic leukemia cell line HL 60; experiment: Cytotoxicity on HL 60 cells, MTT; format: cell-based
[2] = test system: Staphylococcus aureus ATCC 25923; format: cell-based
Procedure, shortened: (§1)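 Microdilution MIC; 1% Bacto Peptone water; inoculum 2×10^6 CFU/ml, mid-log cells; triplicates; peptide levels verified by HPLC before and after addition to wells.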

[3] = test system: Escherichia coli ATCC 25922; format: cell-based
Procedure, shortened: as §1

[4] = test system: Meth A cells (murine sarcoma cell line); experiment: Cytotoxicity on Meth A cells, MTT method
Procedure, shortened: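 Meth A cells in RPMI with 10% FBS exposed to peptides (final e.g. […]) for 4 h, then MTT added for 2 h; formazan dissolved in acid isopropanol and absorbance read at 590 nm. Medium alone and 1% Triton X-100 defined 0% and 100% killing.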

Meth A tumors = experiment: Tumor regression, murine Meth A fibrosarcoma; format: in vivo, mice; conditions: for regression of Meth A tumors: injected intratumorally, treatment on day 7 and 10
Protocol: Specific pathogen-free CB6F1 (Balb/c×C57 BL/6) female mice of about 8 weeks of age were obtained from Charles River (Germany). The mice were kept on standard laboratory chow and water. Tumor bearing mice were serologically screened for viral (LDH, CMV) and mycoplasmic infection and in all cases tested negative.
After a single inoculation of 5×10^7 viable Meth A cells, different LF peptides were injected intratumorally (LFB-14-31, LFB 17-31 Pmc, 500 μg in a 50 μl dose; LFB 17-31, 1000 μg in a 50 μl dose), on day 7 and day 10. LFB 14-31 was also injected intraperitoneally (PBI), 500 μg/ml. Saline only was injected in the control mice (50 μl) (K1,K2,K3). The tumor diameter (mean of transversal and longitudinal) were measured with an electronic calipper.

human red blood cells = experiment: Hemolytic assay; format: cell-based
[5] = test system: MRSA (methicillin resistant S. aureus); format: cell-based
Protocol: The bacterial strains used were: Escherichia coli ATCC 25922 and Staphylococcus aureus ATCC 25923. All strains were stored at −70° C. The bacteria were grown in 2% Bacto Peptone water (Difco 1807-17-4). All tests were performed with bacteria in mid-logarithmic growth phase. Determination of the minimum inhibitory concentration (MIC) of the peptides for bacterial strains were performed in 1% Bacto Peptone water. A standard microdilution technique with an inoculum of 2×10^6 CFU/ml was used. All assays were performed in triplets. Since the peptides are positively charged and therefore could adhere to the plastic wells, we controlled the actual concentration of the peptides in the solution by HPLC. There was no difference between the concentration of the peptides before or after adding the solution to the plastic wells.
Table 13 below gives the antibacterial activity and toxicity data for some preferred peptides of the invention. MRSA is methicillin resistant S. aureus and MRSE is methicillin resistant S. epidermidis.

[6] = format: physicochemical
Source text: Peptide W3714, with three additional tryptophan residues (a total of five tryptophan residues in the peptide), has decreased activity. […] This has been physically observed during MIC testing procedures when the peptide tended to precipitate at high concentrations.

[7] = at the concentration tested, 4 hours

## CSCC[C@H](NC(=O)[C@H](CCCNC(=N)N)NC(=O)[C@H](Cc1c[nH]c2ccccc12)NC(=O)[C@H](CCC(N)=O)NC(=O)[C@H](Cc1c[nH]c2ccccc12)NC(=O)[C@H](CCCNC(=N)N)NC(=O)[C@H](CCCNC(=N)N)NC(=O)[C@H](CSCNC(C)=O)NC(=O)[C@H](CCCCN)NC(=O)[C@H](Cc1ccccc1)NC(=O)[C@H](Cc1c[nH]c2ccccc12)NC(=O)[C@H](CCC(=O)O)NC(=O)[C@@H]1CCCN1)C(=O)N[C@@H](CCCCN)C(=O)N[C@@H](CCCCN)C(=O)N[C@@H](CC(C)C)C(=O)NCC(=O)N[C@@H](C)C(=O)O [LFB 14-31]
[1]
  cytotoxic effect on human HL 60 cells: no cytotoxic effect
[2]; ATCC 25923
  MIC S. aureus: >250 µg/mL
  MIC S. aureus ATCC 25923: 200 µg/mL
[2]; Table 1, value in brackets
  MIC S. aureus ATCC 25923: 80 µM
[3]; ATCC 25922
  MIC E. coli: 70 µg/mL
  MIC E. coli ATCC 25922: 70 µg/mL
[3]; Table 1, value in brackets
  MIC E. coli ATCC 25922: 28 µM
[4]; Table 7, peptide required to kill 50% of MethA cells
  MethA IC50: no activity
Meth A tumors
  regression of Meth A tumors: induced regression of the Meth A tumors
Meth A tumors; treated intraperitoneally
  eradication of Meth A tumors: tumors were also eradicated
Human red blood cells; red cells of human
  EC50: > 404 µM

## CSCC[C@H](NC(=O)[C@H](CCCNC(=N)N)NC(=O)[C@H](Cc1c[nH]c2ccccc12)NC(=O)[C@H](CCC(N)=O)NC(=O)[C@H](Cc1c[nH]c2ccccc12)NC(=O)[C@H](CCCNC(=N)N)NC(=O)[C@H](CCCNC(=N)N)NC(=O)[C@H](CSCNC(C)=O)NC(=O)[C@H](CCCCN)NC(=O)[C@@H](N)Cc1ccccc1)C(=O)N[C@@H](CCCCN)C(=O)N[C@@H](CCCCN)C(=O)N[C@@H](CC(C)C)C(=O)NCC(=O)N[C@@H](C)C(=O)O [LFB 17-31, H2N-Phe-Lys-Cys-Arg-Arg-Trp-Gln-Trp-Arg-Met-Lys-Lys-Leu-Gly-Ala-COOH]
[1]; [7]
  cytotoxic effect on human HL 60 cells: no cytotoxic effect
[2]; Table 1, value in brackets
  MIC S. aureus ATCC 25923: 50 µM
[2]; Table 3, unit assumed
  MIC S. aureus: 100 µg/mL
[2]; Table 4, unit assumed
  MIC S. aureus: 100 µg/mL
[2]; Table 6, unit assumed
  MIC S. aureus: 100 µg/mL
[3]; Table 1, value in brackets
  MIC E. coli ATCC 25922: 20 µM
[3]; Table 3
  MIC E. coli: 50 µg/mL
[3]; Table 4
  MIC E. coli: 50 µg/mL
[3]; Table 6
  MIC E. coli: 50 µg/mL
[4]; 1 mg/ml, 4 hours incubation
  cytotoxic effect on Meth A cells: weak effect
[4]; concentrations up to 1 mg/ml, ½ hour incubation
  cytotoxic effect on Meth A cells: no significant cytotoxic effect
Meth A tumors
  regression of Meth A tumors: induced regression of the Meth A tumors

## CC[C@H](C)[C@H](NC(=O)[C@H](CO)NC(=O)[C@@H]1CCCN1C(=O)[C@H](C)NC(=O)CNC(=O)[C@H](CC(C)C)NC(=O)[C@H](CCCCN)NC(=O)[C@H](CCCCN)NC(=O)[C@H](CCSC)NC(=O)[C@H](CCCNC(=N)N)NC(=O)[C@H](Cc1c[nH]c2ccccc12)NC(=O)[C@H](CCC(N)=O)NC(=O)[C@H](Cc1c[nH]c2ccccc12)NC(=O)[C@H](CCCNC(=N)N)NC(=O)[C@H](CCCNC(=N)N)NC(=O)[C@H](CSCNC(C)=O)NC(=O)[C@H](CCCCN)NC(=O)[C@@H](N)Cc1ccccc1)C(=O)N[C@H](C(=O)N[C@@H](CSCNC(C)=O)C(=O)N[C@H](C(=O)N[C@@H](CCCNC(=N)N)C(=O)N[C@@H](CCCNC(=N)N)C(=O)N[C@@H](C)C(=O)N[C@@H](Cc1ccccc1)C(=O)O)C(C)C)[C@@H](C)O [LFB (17-41), reference compound]
[1]; [7]
  cytotoxic effect on human HL 60 cells: weak concentration dependant cytotoxic effect
[2]; Table 1
  MIC S. aureus ATCC 25923: 30 µg/mL
[3]; Table 1
  MIC E. coli ATCC 25922: 30 µg/mL

## CSCC[C@H](NC(=O)[C@H](CCCNC(=N)N)NC(=O)[C@H](Cc1ccc2ccccc2c1)NC(=O)[C@H](CCC(N)=O)NC(=O)[C@H](Cc1ccc2ccccc2c1)NC(=O)[C@H](CCCNC(=N)N)NC(=O)[C@H](CCCNC(=N)N)NC(=O)[C@H](CSCNC(C)=O)NC(=O)[C@H](CCCCN)NC(=O)[C@@H](N)Cc1ccccc1)C(=O)N[C@@H](CCCCN)C(=O)N[C@@H](CCCCN)C(=O)N[C@@H](CC(C)C)C(=O)NCC(=O)N[C@@H](C)C(=O)O [LFB Nal6, 8]
[2]; ATCC 25923
  MIC S. aureus: 9.6 µM
[2]; Table 8
  MIC S. aureus: 20 µg/mL
[2]; Table 13, 8
  MIC S. aureus: 20.0 µg/mL
[3]; ATCC 25922
  MIC E. coli: 4.8 µM
[3]; Table 8
  MIC E. coli: 10 µg/mL
[3]; Table 13, 8
  MIC E. coli: 10.0 µg/mL
[5]; Table 13, 8
  MIC MRSA: 5.0 µg/mL
[5]; methicillin resistant
  MIC MRSA: 2.4 µM
Human red blood cells
  EC 50: >1000 µg/mL
  EC50: > 479 µM
Human red blood cells; red cells of human
  % Hemolysis 10 μg/ml: 2.8%
  % Hemolysis 100 μg/ml: 4.9%

## C[C@@H](NC(=O)[C@H](CCCNC(=N)N)NC(=O)[C@H](N)Cc1ccc(O)cc1)C(=O)N[C@@H](Cc1c[nH]c2ccccc12)C(=O)N[C@H](CCCNC(=N)N)C(=O)N[C@@H](Cc1c[nH]c2ccccc12)C(=O)N[C@H](C)C(=O)N[C@@H](Cc1c[nH]c2ccccc12)C(=O)N[C@H](CCCNC(=N)N)C(=O)N[C@@H](Cc1c[nH]c2ccccc12)C(=O)N[C@H](CCCNC(=N)N)C(N)=O [tyr-ARG-ala-TRP-arg-TRP-ala-TRP-arg-TRP-arg-CONH2] (H-[dY]R[dA]W[dR]W[dA]W[dR]W[dR]-NH2; N-terminus assumed)
[2]; ATCC 25923
  MIC S. aureus: 7.5 µg/mL
[3]; ATCC 25922
  MIC E. coli: 7.5 µg/mL
[5]; methicillin resistant
  MIC MRSA: 2.5 µg/mL

## H-FKWRRWWWRMKKLWA-OH [LFB W3, 7, 14, H2N-Phe-Lys-Trp-Arg-Arg-Trp-Trp-Trp-Arg-Met-Lys-Lys-Leu-Trp-Ala-COOH]
[2]; ATCC 25923
  MIC S. aureus: 20 µg/mL
[2]; Table 6, unit assumed
  MIC S. aureus: 20 µg/mL
[3]; ATCC 25922
  MIC E. coli: 20 µg/mL
[3]; Table 6
  MIC E. coli: 20 µg/mL
[6]
  solubility in aqueous solutions: less soluble in aquous solutions
Human red blood cells; red cells of human
  % Hemolysis 10 μg/ml: 4.02%
  % Hemolysis 100 μg/ml: 66.1%

## YRWWRWARRW-NH2 [LFM 17-26 A7R2,8, 9W3,4, 10Y1NH2]
[2]; Table 13
  MIC S. aureus: 1.0 µg/mL
[3]; ATCC 25922
  MIC E. coli: 6.2 µM
[3]; Table 10
  MIC E. coli: 10 µg/mL
[3]; Table 13
  MIC E. coli: 10.0 µg/mL
[5]; Table 13
  MIC MRSA: 2.5 µg/mL
[5]; methicillin resistant
  MIC MRSA: 1.5 µM
Human red blood cells
  EC50: 543 ± 56 µM
Human red blood cells; Table 13, toxicity (hemolysis)
  EC 50: 880 ± 90 µg/mL
